{"source": "paper PMC9925730", "about": "“Controlled sequential in situ self-assembly and disassembly of a fluorogenic cisplatin prodrug for cancer theranostics” (Nature Communications, 2023)", "key": {"[1]": {"test": "NIR FL, PA and absorption signals of Pt^IVNPs in solution in response to GSH", "details": "P-CyPt 10 μM", "description": "To monitor the NIR FL and PA imaging signals of P-CyPt in response to ALP, P-CyPt (10 μM) in Tris buffer (1 mL) was incubated with ALP (100 U/L) at 37 °C for 0, 5, 10, 15, 20, and 30 min. To monitor the NIR FL and PA imaging signals of Pt^IVNPs in response to GSH, P-CyPt (10 μM) in Tris buffer (1 mL) was first incubated with ALP (100 U/L) at 37 °C for 30 min and then incubated with 10 mM GSH at 37 °C for another 10, 20, 30, 40, 50, and 60 min. The NIR FL spectra of these solutions at each time point were acquired on a HORIBA Jobin Yvon Fluoromax-4 fluorescence spectrometer, with excitation at 680 nm. For PA imaging, the incubation solutions at each time point were loaded into a fine bore polythene tube ([…], 1.27 mm OD). The tubes were then sealed and immersed in water. The PA images at both 700 and 750 nm were acquired on the Vevo 2100 LAZR system (FUJIFILM VisualSonics)."}, "HeLa cells": {"tested_on": "HeLa cells", "test": "Distribution of Pt element in subcellular organelles (ICP-OES)", "assay_type": "cell-based", "description": "Supplementary Table 3. Comparison of the distribution of Pt element in different subcellular organelles between P-CyPt and CDDP. a Subcellular Amount of Pt distributed in a Percentage of Pt distributed in organelles single cell’s organelle (fmol) b a single cell’s organelle (%) c […]\na HeLa cells were incubated with P-CyPt or CDDP (10 μM) for 1 h. After that, the cells were washed with PBS for three times, replaced with blank medium and cultured for another 24 h. The cells were trypsinized, collected, and the cell numbers were counted.\nThe cell pellets were dispersed in PBS buffer, lysed via ultrasound sonication, and centrifuged at different speed to separate membrane, nucleus, lysosome together with mitochondria, and cytoplasm. The concentration of Pt element in each organelle fraction was then measured by ICP-OES. Values denote mean ± s.d. (n = 3 independent […]\nb The amount of Pt in a single HeLa cell’s subcellular organelle was calculated by dividing the total amount of Pt element in different subcellular organelles to the cell […]\nc Percentage of Pt distributed in a single HeLa cell’s subcellular organelles was calculated by dividing the amount of Pt in a single cell’s subcellular organelles by the amount of Pt in a single cell (sum of organelles). […]\nFor Pt distribution analysis, the cells were treated with P-CyPt (10 μM) or CDDP (10 μM) for 1 h, and then washed with PBS for three times, followed by incubation with fresh medium for another 24 h. After that, cells were washed gently with 2 mL PBS once. The cells were trypsinized, centrifuged and counted. The cell lysates were separated according to a reported fragmentation procedure to obtained different cell fractions, including N (nuclei), M (plasma membrane), L (lysosomes and mitochondria) and C (cytosol). The Cells and different cell fractions were digested with concentrated HNO3 (65~70%) and HCl (36~38%) at 90 °C for 24 h. The solution was diluted to 5 mL 2% HNO3 and 5% HCl solution, and the concentration of Pt element was measured by ICP-OES, which was further applied to calculate the amount of Pt in cells and subcellular organelles. […]\nThe count number for each flow cytometry analysis was ~5000 to 10000, and the data was processed using FlowJo software.\nEvaluation of the ability to break DNA double strand. Supercoiled pBR322 plasmi d DNA (20 ng μL–1) was incubated with blank Tris buffer (i) or Tris buffer containing GSH (2 mM, ii), Tris buffer containing CDDP (100 μM, iii), Tris buffer containing GSH (2 mM) and CDDP (100 μM, iv), Tris buffer containing P-CyPt (100 μM, v), Tris buffer containing P-CyPt (100 μM) and GSH (2 mM, vi), Tris buffer containing P-CyPt (100 μM) and ALP (500 U/L, vii), and Tris buffer containing P-CyPt (100 μM), ALP (500 U/L) and GSH (2 mM, viii) or incubated with P-CyPt ((0, 1, 2, 5, 10, 20, 50 and 100 μM, from i-viii) respectively in the presence of ALP (500 U/L), followed by incubation with GSH (2 mM) in Tris buffer) at 37 °C for 16 h. Then, the reactions (10 μL) were quenched by loading buffer (2 μL, including 30 mM EDTA, 36% glycerol, 0.05% xylene cyanol FF, and 0.05% bromophenol blue). The resulting solutions and 1kb-I DNA ladder (GsDL10001) were loaded into native agarose gel (1%) and subjected to electrophoresis in a TAE buffer (40 mM Tris acetate, 1 mM EDTA). The"}, "[2]": {"details": "ALP 30 min then GSH 10 mM 10 min (time 40)"}, "[3]": {"details": "ALP 30 min then GSH 10 mM 20 min (time 50)"}, "[4]": {"details": "ALP 30 min then GSH 10 mM 30 min (time 60)"}, "[5]": {"details": "ALP 30 min then GSH 10 mM 40 min (time 70)"}, "[6]": {"details": "ALP 30 min then GSH 10 mM 50 min (time 80)"}, "[7]": {"details": "ALP 30 min then GSH 10 mM 60 min (time 90)"}, "[8]": {"details": "Cytoplasm (C), individual samples"}, "[9]": {"details": "Cytoplasm (C), mean of 3 samples"}, "[10]": {"details": "HeLa, 10 μM 1 h, then blank medium 24 h"}, "[11]": {"details": "Membrane(M), individual samples"}, "[12]": {"details": "Mito&Lyso (L), individual samples"}, "[13]": {"details": "Mito&Lyso (L), mean of 3 samples"}, "[14]": {"details": "Nucleus (N), individual samples"}}, "note": "Where “and” joins values, the source holds several entries; their conditions need not be identical. Identical values can stand only once.", "data": [{"smiles": "CC1(C)C(/C=C/C2=C3Oc4cc(OP(=O)(O)O)c(Cl)cc4C=C3CCC2)=[N+](CCCNC(=O)[C@@H](Cc2ccccc2)NC(=O)[C@@H](Cc2ccccc2)NC(=O)CCC(=O)[O][Pt]([NH2])([NH2])([OH])([Cl])[Cl])c2ccccc21", "note": "[P-CyPt]", "values": [{"measurement": "normalized Abs. at 700 nm (Fig. 2j)", "setting": "[1]; [2]", "value": 1.037}, {"measurement": "normalized Abs. at 750 nm (Fig. 2j)", "setting": "[1]; [2]", "value": 0.6059}, {"measurement": "normalized FL intensity at 710 nm (Fig. 2k)", "setting": "[1]; [2]", "value": 15.4414}, {"measurement": "normalized PA intensity at 700 nm (Fig. 2l)", "setting": "[1]; [2]", "value": 0.9827}, {"measurement": "normalized PA intensity at 750 nm (Fig. 2l)", "setting": "[1]; [2]", "value": 0.8167}, {"measurement": "normalized Abs. at 700 nm (Fig. 2j)", "setting": "[1]; [3]", "value": 1.054}, {"measurement": "normalized Abs. at 750 nm (Fig. 2j)", "setting": "[1]; [3]", "value": 0.4238}, {"measurement": "normalized FL intensity at 710 nm (Fig. 2k)", "setting": "[1]; [3]", "value": 19.7308}, {"measurement": "normalized PA intensity at 700 nm (Fig. 2l)", "setting": "[1]; [3]", "value": 0.9792}, {"measurement": "normalized PA intensity at 750 nm (Fig. 2l)", "setting": "[1]; [3]", "value": 0.6967}, {"measurement": "normalized Abs. at 700 nm (Fig. 2j)", "setting": "[1]; [4]", "value": 1.062}, {"measurement": "normalized Abs. at 750 nm (Fig. 2j)", "setting": "[1]; [4]", "value": 0.3077}, {"measurement": "normalized FL intensity at 710 nm (Fig. 2k)", "setting": "[1]; [4]", "value": 25.1768}, {"measurement": "normalized PA intensity at 700 nm (Fig. 2l)", "setting": "[1]; [4]", "value": 0.9821}, {"measurement": "normalized PA intensity at 750 nm (Fig. 2l)", "setting": "[1]; [4]", "value": 0.5167}, {"measurement": "normalized Abs. at 700 nm (Fig. 2j)", "setting": "[1]; [5]", "value": 1.0719}, {"measurement": "normalized Abs. at 750 nm (Fig. 2j)", "setting": "[1]; [5]", "value": 0.2002}, {"measurement": "normalized FL intensity at 710 nm (Fig. 2k)", "setting": "[1]; [5]", "value": 29.4155}, {"measurement": "normalized PA intensity at 700 nm (Fig. 2l)", "setting": "[1]; [5]", "value": 0.9744}, {"measurement": "normalized PA intensity at 750 nm (Fig. 2l)", "setting": "[1]; [5]", "value": 0.3617}, {"measurement": "normalized Abs. at 700 nm (Fig. 2j)", "setting": "[1]; [6]", "value": 1.0764}, {"measurement": "normalized Abs. at 750 nm (Fig. 2j)", "setting": "[1]; [6]", "value": 0.1155}, {"measurement": "normalized FL intensity at 710 nm (Fig. 2k)", "setting": "[1]; [6]", "value": 34.4707}, {"measurement": "normalized PA intensity at 700 nm (Fig. 2l)", "setting": "[1]; [6]", "value": 0.9821}, {"measurement": "normalized PA intensity at 750 nm (Fig. 2l)", "setting": "[1]; [6]", "value": 0.2567}, {"measurement": "normalized Abs. at 700 nm (Fig. 2j)", "setting": "[1]; [7]", "value": 1.084}, {"measurement": "normalized Abs. at 750 nm (Fig. 2j)", "setting": "[1]; [7]", "value": 0.09482}, {"measurement": "normalized FL intensity at 710 nm (Fig. 2k)", "setting": "[1]; [7]", "value": 35.3761}, {"measurement": "normalized PA intensity at 700 nm (Fig. 2l)", "setting": "[1]; [7]", "value": 1.001}, {"measurement": "normalized PA intensity at 750 nm (Fig. 2l)", "setting": "[1]; [7]", "value": 0.1807}, {"measurement": "Amount of Pt in subcellular fraction", "setting": "HeLa cells; [8]", "value": "10.4601 fmol and 9.6958 fmol and 8.113 fmol"}, {"measurement": "Distribution of Pt in subcellular fraction", "setting": "HeLa cells; [8]", "value": "43.0958% and 39.9467% and 33.4263%"}, {"measurement": "Amount of Pt in subcellular fraction", "setting": "HeLa cells; [9]", "value": 9.42, "unit": "fmol"}, {"measurement": "Distribution of Pt in subcellular fraction", "setting": "HeLa cells; [9]", "value": 38.82, "unit": "%"}, {"measurement": "Amount of Pt distributed in a single cell's organelle: Cytoplasm", "setting": "HeLa cells; [10]", "value": "9.42 ± 1.20", "unit": "fmol"}, {"measurement": "Amount of Pt distributed in a single cell's organelle: Lysosome & Mitochondria", "setting": "HeLa cells; [10]", "value": "6.34 ± 0.81", "unit": "fmol"}, {"measurement": "Amount of Pt distributed in a single cell's organelle: Membrane", "setting": "HeLa cells; [10]", "value": "1.46 ± 0.19", "unit": "fmol"}, {"measurement": "Amount of Pt distributed in a single cell's organelle: Nucleus", "setting": "HeLa cells; [10]", "value": "7.05 ± 0.90", "unit": "fmol"}, {"measurement": "Percentage of Pt distributed in a single cell's organelle: Cytoplasm (cytosol)", "setting": "HeLa cells; [10]", "value": 38.82, "unit": "%"}, {"measurement": "Percentage of Pt distributed in a single cell's organelle: Lysosome & Mitochondria", "setting": "HeLa cells; [10]", "value": "26.11% and ~ 26.11%"}, {"measurement": "Percentage of Pt distributed in a single cell's organelle: Membrane", "setting": "HeLa cells; [10]", "value": 6.02, "unit": "%"}, {"measurement": "Percentage of Pt distributed in a single cell's organelle: Nucleus", "setting": "HeLa cells; [10]", "value": "29.05% and ~ 29.05%"}, {"measurement": "Amount of Pt in subcellular fraction", "setting": "HeLa cells; [11]", "value": "0.7699 fmol and 1.266 fmol and 2.345 fmol"}, {"measurement": "Distribution of Pt in subcellular fraction", "setting": "HeLa cells; [11]", "value": "3.1718% and 5.2172% and 9.6606%"}, {"measurement": "Amount of Pt in subcellular fraction", "setting": "HeLa cells; Membrane(M), mean of 3 samples", "value": 1.46, "unit": "fmol"}, {"measurement": "Distribution of Pt in subcellular fraction", "setting": "HeLa cells; Membrane(M), mean of 3 samples", "value": 6.02, "unit": "%"}, {"measurement": "Amount of Pt in subcellular fraction", "setting": "HeLa cells; [12]", "value": "6.19 fmol and 6.277 fmol and 6.546 fmol"}, {"measurement": "Distribution of Pt in subcellular fraction", "setting": "HeLa cells; [12]", "value": "25.5012% and 25.8599% and 26.9676%"}, {"measurement": "Amount of Pt in subcellular fraction", "setting": "HeLa cells; [13]", "value": 6.34, "unit": "fmol"}, {"measurement": "Distribution of Pt in subcellular fraction", "setting": "HeLa cells; [13]", "value": 26.11, "unit": "%"}, {"measurement": "Amount of Pt in subcellular fraction", "setting": "HeLa cells; [14]", "value": "6.061 fmol and 7.285 fmol and 7.806 fmol"}, {"measurement": "Distribution of Pt in subcellular fraction", "setting": "HeLa cells; [14]", "value": "24.9722% and 30.0159% and 32.1624%"}, {"measurement": "Amount of Pt in subcellular fraction", "setting": "HeLa cells; Nucleus (N), mean of 3 samples", "value": 7.05, "unit": "fmol"}, {"measurement": "Distribution of Pt in subcellular fraction", "setting": "HeLa cells; Nucleus (N), mean of 3 samples", "value": 29.05, "unit": "%"}]}]}
